{"source": "patent US20050118116A1", "about": "“Dental bleaching product” (UNIVERSITAT DE LES ILLES BALEARS, LABORATORIOS KIN, S.A., priority 1999, published 2005)", "key": {"[1]": {"experiment": "speed with which a tetracycline solution is rendered colourless (spectrophotometer, 37° C.)", "format": "biochemical", "conditions": "no peroxidase; high carbamide peroxide concentrations; FIG. 2", "text": "The mouth wash consists of a 2.4% carbamide peroxide solution in 0.1 M phosphate buffer, pH 6.5 and on the other hand, a peroxidase solution (120 units of pyrogallol/ml) in 0.1 M phosphate buffer, pH 6.5 which is fed into the container in which the de-staining reaction is to take place, immediately after the mouth wash.\nThe substance to be rendered colourless is tetracycline, which is solublised in water at a concentration of 0.015M. The maximum tetracycline absorption wavelength has been selected so as to monitor the de-staining speed. The de-staining speed is determined using a spectrophotometer which allows the absorption to be monitored continually, the reaction tray being thermostated at 37° C. The de-staining reaction speeds have been calculated from the relations between absorbency variation and the reaction time, and they have been expressed in nKat.\nThe necessary quantities of tetracycline solution, the mouth wash and enzyme (in this order) are placed in the reaction tray to obtain the parameter combinations according to which it is intended to evaluate the enzyme bleaching capacity."}, "[2]": {"experiment": "tooth brightness factor before/after treatment (non-limiting example in the description)", "conditions": "1.5% carbamide peroxide, pH 6.5 phosphates; peroxidase 20 units pyrogallol/ml where present; 64% before treatment"}}, "data": [{"smiles": "NC(N)=O.OO", "note": "[carbamide peroxide]", "values": [{"measurement": "carbamide peroxide concentration from which de-staining speed saturates", "setting": "[1]", "result": "approximately 0.70 M"}, {"measurement": "brightness factor of a tooth after treatment", "setting": "[2]", "result": 64, "unit": "%"}]}]}
